Here are results for one substance from patent publication US11318190B2, “Methods and compositions for treating liver disease” (UNITED STATES GOVERNMENT AS REPRESENTED BY THE DEPARTMENT …, priority 2017, dated 2022).

Test [1] has as its system dnTGF-βRII mice. Put plainly: dnTGF-βRII mice 12 wk (early stage PBC model) treated 1 wk by osmotic minipump. It is filed as in vivo, mouse. As to conditions: dnTGF-βRII 12 wk. As to the method: Briefly, we used wild-type (WT), dnTGFβRII 12 wk and dnTGFβRII 34 wk mice treated with control or SR antagonist (SCT 5-27) minipump (10 μg/kg/day) for 1 wk. Hepatic damage was shown by H&E. IBDM and cholangiocyte proliferation were measured by immunohistochemistry for CK-19 and Ki67, respectively. Biliary apoptosis was evaluated by TUNEL staining. Senescence was measured in cholangiocytes by immunofluorescence for CCL2 or p16 co-stained with CK-19 (to image bile ducts) and SA-β-Galactosidase activity. Hepatic fibrosis was assessed by qPCR for collagen-1a and α-SMA in total liver, and quantification of Sirius Red staining. Hepatic stellate cell (HSC) activation was evaluated by immunofluorescence (IF) for Syp-9. HSC senescence was evaluated by IF for CCL2 or p16 co-stained with desmin (to visualize HSCs). Secretin levels in serum and bile were measured by EIA. Bile and serum were obtained from human control, early PBC and advanced PBC patients, and secretin was evaluated by EIA.
All animal procedures were performed according to protocols approved by the Baylor Scott & White Health IACUC Committee. Transgenic mice expressing a dominant-negative form of the human transforming growth factor-beta receptor II (dnTGF-βRII) were obtained from Dr. M. Eric Gershwin at UC Davis Health (Sacramento, Calif.), and background-matched wild-type (WT, strain C57BL/6) mice were purchased from Charles River Laboratories (Wilmington, Mass.); the breeding colony is established in our animal facility. Animals were maintained in micro-isolator cages in a temperature-controlled environment with 12/12-hr light/dark cycles and fed ad libitum standard chow with free access to drinking water. Studies were performed in 12 wk-old WT mice, and 12 wk-old (mimic early stage PBC) and 32 wk-old (mimic late stage PBC) female and male dnTGF-βRII mice (25-30 gm) that were treated with either saline, secretin (Sct; 2.5 nmoles/kg body weight per day; Bachem, Torrance, Calif.) or the secretin receptor (SR) antagonist, Sec 5-27 (10 μg/kg body weight per day; Thermo Fisher Scientific, Waltham, Mass.) for 1 wk by intraperitoneally implanted osmotic minipump. Liver tissue samples and blocks (formalin-fixed, paraffin-embedded and OCT-embedded), serum, bile, cholangiocytes, and cholangiocyte supernatants (after incubation at 37° C. for 4 hr) were collected as described.
Hematoxylin and eosin (H&E) staining was performed in formalin-fixed, paraffin-embedded liver sections (4-5 μm, 3 samples from 3 different animals) to determine liver morphology. H&E stained liver sections were evaluated by a board-certified pathologist to assess the degree of lobular damage, hepatic necrosis and portal inflammation. At least 10 different portal areas were evaluated for each parameter. Liver sections were examined in a coded fashion by BX-51 light microscopy (Olympus, Tokyo, Japan) equipped with a camera (See, Mancinelli, R et al., Ischemia reperfusion of the hepatic artery induces the functional damage of large bile ducts by changes in the expression of angiogenic factors. Am J Physiol Gastrointest Liver Physiol 2015; 309:G865-873 (2015); Taffetani S et al., Prolactin stimulates the proliferation of normal female cholangiocytes by differential regulation of Ca2+-dependent PKC isoforms, BMC Physiol 7:6 (2007)).
Serum levels of alkaline phosphatase (ALP) and γ-glutamyltransferase (γGT) are commonly used to diagnose PBC (Heathcote, E J, Management of primary biliary cirrhosis. The American Association for the Study of Liver Diseases practice guidelines, Hepatology 31:1005-1013 (2000)); therefore, were measured serum levels of ALP and γGT in mouse serum samples using the Alkaline Phosphatase Assay Kit and γ-Glutamyltransferase Activity Colorimetric Assay Kit, respectively (Abcam; Cambridge, Mass.).
Early stage PBC is identified by cholangiocyte proliferation, whereas late stage PBC is characterized by ductopenia. […]

The test system of test [2] is large IMCLs. The test can be described thus: Large IMCLs treated with secretin with/without LY2109761, or with TGF-β1 (Example 2). In kind it is cell-based, mouse. The settings on record: secretin 10 nM, 12 hr. An excerpt:
Cholangiocytes were obtained by immunoaffinity separation as described herein above, using a monoclonal antibody (a gift from Dr. R. Faris, Brown University, Providence, R.I.) that is expressed by all intrahepatic cholangiocytes. HSCs from the selected groups of mice were isolated by LCM as described previously in Wu, N et al., The secretin/secretin receptor axis modulates liver fibrosis through changes in transforming growth factor-beta1 biliary secretion in mice, Hepatology (Baltimore, Md.) 64(3):865-879 (2016). Briefly, frozen liver sections (n=3, 10 μm thick) were incubated overnight with an anti-desmin (a marker of stellate cells) antibody. Then, desmin-positive cells were dissected from the slides using a LCM system Leica LMD7000 (Buffalo Grove, Ill.) and were collected before RNA extraction with the Arcturus PicoPure RNA isolation kit (Thermo Fisher Scientific CO, Mountain View, Calif.). The in vitro studies were performed in: (I) immortalized murine cholangiocyte lines derived from large cholangiocytes lining large ducts (IMCLs); and (ii) human hepatic stellate cell lines (HHSteCs; ScienCell Research Laboratories, Carlsbad, Calif.).
WT mice were treated for 1 wk with saline or secretin (Sct; 2.5 nmoles/kg body weight per day) before collecting cholangiocytes, HSCs and cholangiocyte supernatants. The levels of TGF-β1 were measured in short-term (6-hour) cultures of cholangiocytes by ELISA kits. Subsequently, we measured: (i) liver fibrosis by immunofluorescence for Col1a1 in liver sections and real-time PCR for TGF-β1, TFG-β1R, Col1a1, α-SMA and Fn1 in cholangiocytes and HSCs; and (ii) cellular senescence by immunofluorescence in liver sections for p16 and real-time PCR for p16 and p21 in cholangiocytes and HSC.
Biliary supernatants were obtained from normal and BDL WT mice and Sct^−/−, SR^−/− and Sct^−/−/SR^−/− BDL mice as well as normal WT mice treated with saline or secretin. HHSteCs were incubated with the aforementioned biliary supernatants (containing different levels of TGF-β1) for 24 hr (in the absence or presence of LY2109761) before measuring the expression of senescence and fibrosis genes by real-time PCR. Furthermore, HHSteCs were incubated with the supernatant of large IMCLs treated for 0.2% bovine serum albumin (basal) or secretin (10 nM) with/without LY2109761 for 6 hr before measuring the mRNA expression of fibrosis and senescence genes. To provide direct evidence that TGF-β1 directly modulates fibrosis and senescence of IMCLs and HHSteCs, these cells were stimulated with TGF-β1 (10 nM) for 24 hr before measuring the expression of PCNA as well as fibrosis and senescence genes by real-time PCR.

Take secretin [Sct]: in test [1], the “HSC activation (SYP-9 staining)” value is listed as “further enhanced”; the “biliary senescence (p16, p18, p21, CCL2)” value is “further increased”; the “cholangiocyte apoptosis (TUNEL-positive cholangiocytes)” value is recorded as “further reduced”; the “liver damage (H&E: portal inflammation, inflammatory infiltration, lobular necrosis)” value is recorded as “further increased”. In test [1] (vs saline treated), the “Sct, SR, CFTR and AE2 expression” value is on record as “further increase”; the “collagen content / deposition (Sirius Red), hepatic fibrosis” value is listed as “further enhanced”; the “serum levels of ALP and γGT” value is listed as “further increased”. Also, the “intrahepatic bile duct mass (IBDM, CK-19)” value in test [1] (vs saline treated, 1 wk minipump) is given as “further increase”. In addition, the “secretion of TGF-β1 and expression of fibrosis and senescence genes of large IMCLs” value in test [2] is reported as “increased”.
